Laboratory results reported in ChEMBL document CHEMBL1201862, “PubChem BioAssay data set” (2004).
Calls of active or inactive are those of the source.

Experiments:
[1] = P. falciparum 3D7-ScDHODH growth inhibitors, dose response, SYBR Green, dry powder samples (AID 1159570); assay type: functional, cell-based;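 note: parasite growth measured after 72 hours of compound exposure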
[2] = P. falciparum Dd2 growth inhibitors, dose response, SYBR Green, cherry-picked samples (AID 1159567); assay type: functional, cell-based
[3] = P. falciparum Dd2 growth inhibitors, dose response, SYBR Green, dry powder samples (AID 1159566); assay type: functional, cell-based;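 note: potency for growth inhibition with lower SYBR green DNA signal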
[4] = P. falciparum ATP4 D1247Y mutant growth inhibitors, dose response, NITD609-resistant line, SYBR Green, dry powder (AID 1159571); assay type: functional, cell-based;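 note: parasites synchronized at ring stage by sorbitol before testing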
[5] = target: T1, Fructose-bisphosphate aldolase (Mycobacterium tuberculosis, UniProt P9WQA3); assay: Fluorescence-based biochemical high throughput dose response assay for inhibitors of the fructose-bisphosphate aldolase (FBA) of M. tuberculosis.; assay type: functional
T1 sequence (P9WQA3 whole entry): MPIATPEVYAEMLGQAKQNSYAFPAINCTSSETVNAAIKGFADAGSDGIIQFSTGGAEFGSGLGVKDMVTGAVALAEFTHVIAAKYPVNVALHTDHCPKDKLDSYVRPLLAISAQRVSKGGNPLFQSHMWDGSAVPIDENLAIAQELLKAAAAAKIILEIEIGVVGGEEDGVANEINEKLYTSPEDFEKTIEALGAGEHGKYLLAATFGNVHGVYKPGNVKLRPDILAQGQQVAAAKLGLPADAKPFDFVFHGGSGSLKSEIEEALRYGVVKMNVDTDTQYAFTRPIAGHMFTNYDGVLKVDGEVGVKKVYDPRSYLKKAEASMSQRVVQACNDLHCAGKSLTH

cells [6] = assay type: functional, cell-based
cells [7] = assay type: functional, cell-based; remark: listed apart in the source
[8] = target: T2, DNA repair and recombination protein RAD54-like (Homo sapiens, UniProt Q92698); assay: inhibitors of human RAD54 branch migration, confirmation, biochemical, fluorescence, cherry-picked samples, dose series (AID 651657); assay type: functional
T2 sequence (Q92698 whole entry): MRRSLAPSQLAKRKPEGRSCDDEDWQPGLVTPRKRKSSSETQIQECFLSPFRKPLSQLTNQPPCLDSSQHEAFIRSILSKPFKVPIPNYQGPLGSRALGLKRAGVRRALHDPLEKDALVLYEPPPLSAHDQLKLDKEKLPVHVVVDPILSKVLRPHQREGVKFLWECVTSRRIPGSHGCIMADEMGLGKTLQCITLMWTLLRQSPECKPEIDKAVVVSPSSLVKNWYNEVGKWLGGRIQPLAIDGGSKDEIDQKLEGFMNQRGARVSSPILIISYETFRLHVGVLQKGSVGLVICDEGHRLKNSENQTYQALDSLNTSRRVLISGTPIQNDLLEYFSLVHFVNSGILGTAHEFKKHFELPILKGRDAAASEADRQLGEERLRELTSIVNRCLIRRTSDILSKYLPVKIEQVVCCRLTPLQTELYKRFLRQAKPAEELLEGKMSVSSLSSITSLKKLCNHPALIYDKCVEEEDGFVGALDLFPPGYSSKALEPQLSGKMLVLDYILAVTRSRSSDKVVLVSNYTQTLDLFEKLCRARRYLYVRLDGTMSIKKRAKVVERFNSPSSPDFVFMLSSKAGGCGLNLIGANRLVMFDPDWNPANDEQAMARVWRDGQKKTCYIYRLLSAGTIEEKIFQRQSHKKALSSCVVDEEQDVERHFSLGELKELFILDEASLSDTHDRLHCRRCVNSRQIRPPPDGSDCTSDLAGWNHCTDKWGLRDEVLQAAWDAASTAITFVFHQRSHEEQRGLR

[9] = target: T3, DNA repair protein RAD52 homolog (Homo sapiens, UniProt P43351); assay type: functional, biochemical
T3 sequence (P43351 whole entry): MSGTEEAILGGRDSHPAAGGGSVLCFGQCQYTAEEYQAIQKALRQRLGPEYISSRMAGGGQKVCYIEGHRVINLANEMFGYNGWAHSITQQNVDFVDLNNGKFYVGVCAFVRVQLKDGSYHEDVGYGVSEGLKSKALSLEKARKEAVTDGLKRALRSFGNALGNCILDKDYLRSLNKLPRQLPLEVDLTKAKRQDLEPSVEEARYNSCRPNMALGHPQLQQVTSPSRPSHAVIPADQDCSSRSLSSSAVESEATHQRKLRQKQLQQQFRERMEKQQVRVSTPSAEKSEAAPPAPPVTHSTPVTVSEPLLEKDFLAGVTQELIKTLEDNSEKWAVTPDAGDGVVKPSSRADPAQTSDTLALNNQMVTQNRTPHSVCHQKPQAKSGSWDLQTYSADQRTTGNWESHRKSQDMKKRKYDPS

Vero = assay: host cell cytotoxicity of antiviral hits, dose response, cytotoxicity control for West Nile virus antiviral project, secondary assay (AID 1650); assay type: functional; conditions: Chlorocebus sabaeus
[10] = inhibitors of intracellular T. cruzi replication, confirmation, NIH3T3 host cells, beta-gal luminescence (AID 2044); assay type: functional, cell-based;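 note: intracellular parasites grown in NIH/3T3 mouse fibroblasts as host cells; luminescent beta-galactosidase reporter signal from transgenic T. cruzi replicating inside host cells; inhibitors lower the luminescence signal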
[11] = cytotoxicity toward NIH3T3 fibroblasts, dose response, counter-screen, cell-based, ATP luminescence, mouse fibroblasts (AID 2010); assay type: functional;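 note: cells exposed to compound for about 90 hours before reading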
cells [12] = assay: cells
[13] = A549 cell cytotoxicity, dose response, cytotoxicity control, plate reader, cherry-pick, antagonist series (AID 743412); assay type: functional, cell-based
[14] = HepG2 cell cytotoxicity, dose response, cytotoxicity control, plate reader, cherry-pick, antagonist series (AID 743416); assay type: functional, cell-based
[15] = LGR2 antagonists, dose response, cell-based, HEK293, CRE-luciferase reporter, cherry pick, set 2 (AID 743343); assay type: functional;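 note: transfected cells were stimulated with diluted bursicon conditioned medium after compound addition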
[16] = MC4R antagonists, dose response, counter-screen for LGR2 antagonist project, cell-based, plate reader, cherry pick (AID 743444); assay type: functional;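 note: transfected HEK 293 cells stimulated with alpha-MSH peptide; potency of inhibitors of the alpha-MSH evoked signal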
[17] = HEK293 cell cytotoxicity, dose response, cytotoxicity control, plate reader, cherry-picked samples (AID 743446); assay type: functional, cell-based

With `C[C@H](CO)N1C[C@H](C)[C@@H](CN(C)C(=O)Nc2cccc3ccccc23)Oc2ccc(NC(=O)Nc3ccc(C(F)(F)F)cc3)cc2C1=O` the AC50 [1] was 1.37 µM (active), the AC50 [2] was 1.81 µM (active) and the AC50 [3] was 1.44 µM (active). The AC50 [4] was 1.21 µM (active).
In the case of `COC(=O)CN(c1ccc2c(c1)OCCO2)S(=O)(=O)c1ccccc1`, the IC50 [5] is reported as > 9.99 µM (inactive).
For `O=C(CNC(=O)c1cccc(F)c1)N/N=C/C=C/c1ccccc1`, the IC50 (cells [6]) was > 29.9 µM (inactive) and the EC50 (cells [7]) was > 29.9 µM (inactive).
With `COc1ccc(CCNC(=O)c2cc3c(=O)n4ccccc4nc3n(CCCN3CCOCC3)c2=N)cc1OC` the AC50 [8] was 31 µM (active) and the AC50 [9] was 11.5 µM (active).
With `CC(C)N1C(=O)/C(=C/c2nc3ccccc3c(=O)n2-c2ccccc2)c2ccccc21` the CC50 (Vero) was 27.3 µM (active) and the EC50 [10] was 0.997 µM (active).
For `COc1ccc(CN2CCCC(N3CCN(c4cccc(Cl)c4)CC3)C2)cc1OC` (configuration not stated), the EC50 [10] was < 0.1 µM (active), the EC50 [11] was > 60 µM (not active) and the EC50 (cells [12]) was 0.038 µM (active).
With `N#C[C@@H]1[C@H](c2ccc(C#Cc3ccccc3F)cc2)[C@H](CO)N1C(=O)C1CCCCC1` the AC50 [13] was 17.6 µM (active), the AC50 [14] was 2.67 µM (active) and the AC50 [15] was 20 µM (active). The AC50 [16] was 27.5 µM (active) and the AC50 [17] was 14.3 µM (active).
With `COc1ccc(-c2cc(-c3ccccc3)c(C#N)c(SCC(=O)O)n2)cc1` the IC50 [5] was 1.35 µM (active).
For `COc1cc(-c2cnc3c(NC=O)cc(-c4cccc(C(=O)NCCN(C)C)c4)cn23)cc(OC)c1OC`, the AC50 [8] was 8.57 µM (active) and the AC50 [9] was 3.07 µM (active).
